The term IC50 denotes the concentration that inhibits the measured activity by half. Broadly, the EC50 is the concentration that produces a half-maximal response. By AC50 is commonly meant the midpoint of the concentration-response curve, whichever way the signal moves. For orientation: Ki means a measure of affinity in units of concentration, obtained from inhibition or displacement.

We go through 5 compounds from ChEMBL document CHEMBL1201862, “PubChem BioAssay data set” (2004).

The structures appear in SMILES notation. The source made the active and inactive calls.

One assay has as its target T1, Leucine aminopeptidase (Plasmodium falciparum 3D7, UniProt Q8IL11).
T1 sequence (Q8IL11 whole entry): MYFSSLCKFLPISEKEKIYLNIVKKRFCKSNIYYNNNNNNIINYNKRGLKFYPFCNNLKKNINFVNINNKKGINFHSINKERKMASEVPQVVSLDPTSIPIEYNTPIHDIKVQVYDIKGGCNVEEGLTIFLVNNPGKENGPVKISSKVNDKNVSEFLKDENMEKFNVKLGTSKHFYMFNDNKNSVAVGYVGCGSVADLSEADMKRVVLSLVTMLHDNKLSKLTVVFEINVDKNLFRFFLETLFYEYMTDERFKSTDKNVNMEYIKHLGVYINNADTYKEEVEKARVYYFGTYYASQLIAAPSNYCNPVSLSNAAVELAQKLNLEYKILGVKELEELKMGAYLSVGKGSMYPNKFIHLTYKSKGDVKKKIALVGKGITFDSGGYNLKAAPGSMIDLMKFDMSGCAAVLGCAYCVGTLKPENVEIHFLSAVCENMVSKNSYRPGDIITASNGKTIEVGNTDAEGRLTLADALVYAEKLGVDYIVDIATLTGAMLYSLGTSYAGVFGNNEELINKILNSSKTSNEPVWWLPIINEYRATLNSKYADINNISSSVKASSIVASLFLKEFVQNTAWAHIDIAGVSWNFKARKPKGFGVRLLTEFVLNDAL
The experiment in a line: P. falciparum M17LAP inhibitors, primary screen, biochemical, fluorogenic H-Leu-NHMec substrate, 1536-well (AID 1619). It counts as functional.

Assay [1] deals with Intestinal-type alkaline phosphatase (Homo sapiens, UniProt P09923). The experiment in a line: human intestinal alkaline phosphatase activators, dose response, biochemical, luminescence, uHTS hits (AID 463120). The class given is functional.
Chain of Intestinal-type alkaline phosphatase (P09923 whole entry): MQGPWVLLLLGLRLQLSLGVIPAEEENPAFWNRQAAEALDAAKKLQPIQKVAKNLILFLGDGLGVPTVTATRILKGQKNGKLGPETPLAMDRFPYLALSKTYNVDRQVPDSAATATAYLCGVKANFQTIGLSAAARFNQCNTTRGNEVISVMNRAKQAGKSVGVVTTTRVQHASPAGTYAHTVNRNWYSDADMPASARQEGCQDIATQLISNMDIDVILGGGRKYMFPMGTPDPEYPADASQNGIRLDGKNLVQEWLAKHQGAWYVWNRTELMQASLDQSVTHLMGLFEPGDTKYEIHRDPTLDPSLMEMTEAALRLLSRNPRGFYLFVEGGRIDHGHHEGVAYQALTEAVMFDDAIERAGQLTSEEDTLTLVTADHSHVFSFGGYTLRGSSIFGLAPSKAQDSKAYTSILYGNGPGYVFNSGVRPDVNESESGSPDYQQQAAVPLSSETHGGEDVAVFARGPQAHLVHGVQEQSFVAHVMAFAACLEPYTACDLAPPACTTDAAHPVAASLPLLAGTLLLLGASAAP
Assay [2] can be described thus: luciferase reporter signal suppression in cells – H4 neuroglioma cells, luminescence, dose response (AID 1990). The class given is functional, cell-based. On the technique in general: A reporter such as luciferase makes a cellular process visible.
In assay [3] the target is T2, Histone-lysine N-methyltransferase NSD2 (Homo sapiens, UniProt O96028).
T2 sequence (O96028 whole entry): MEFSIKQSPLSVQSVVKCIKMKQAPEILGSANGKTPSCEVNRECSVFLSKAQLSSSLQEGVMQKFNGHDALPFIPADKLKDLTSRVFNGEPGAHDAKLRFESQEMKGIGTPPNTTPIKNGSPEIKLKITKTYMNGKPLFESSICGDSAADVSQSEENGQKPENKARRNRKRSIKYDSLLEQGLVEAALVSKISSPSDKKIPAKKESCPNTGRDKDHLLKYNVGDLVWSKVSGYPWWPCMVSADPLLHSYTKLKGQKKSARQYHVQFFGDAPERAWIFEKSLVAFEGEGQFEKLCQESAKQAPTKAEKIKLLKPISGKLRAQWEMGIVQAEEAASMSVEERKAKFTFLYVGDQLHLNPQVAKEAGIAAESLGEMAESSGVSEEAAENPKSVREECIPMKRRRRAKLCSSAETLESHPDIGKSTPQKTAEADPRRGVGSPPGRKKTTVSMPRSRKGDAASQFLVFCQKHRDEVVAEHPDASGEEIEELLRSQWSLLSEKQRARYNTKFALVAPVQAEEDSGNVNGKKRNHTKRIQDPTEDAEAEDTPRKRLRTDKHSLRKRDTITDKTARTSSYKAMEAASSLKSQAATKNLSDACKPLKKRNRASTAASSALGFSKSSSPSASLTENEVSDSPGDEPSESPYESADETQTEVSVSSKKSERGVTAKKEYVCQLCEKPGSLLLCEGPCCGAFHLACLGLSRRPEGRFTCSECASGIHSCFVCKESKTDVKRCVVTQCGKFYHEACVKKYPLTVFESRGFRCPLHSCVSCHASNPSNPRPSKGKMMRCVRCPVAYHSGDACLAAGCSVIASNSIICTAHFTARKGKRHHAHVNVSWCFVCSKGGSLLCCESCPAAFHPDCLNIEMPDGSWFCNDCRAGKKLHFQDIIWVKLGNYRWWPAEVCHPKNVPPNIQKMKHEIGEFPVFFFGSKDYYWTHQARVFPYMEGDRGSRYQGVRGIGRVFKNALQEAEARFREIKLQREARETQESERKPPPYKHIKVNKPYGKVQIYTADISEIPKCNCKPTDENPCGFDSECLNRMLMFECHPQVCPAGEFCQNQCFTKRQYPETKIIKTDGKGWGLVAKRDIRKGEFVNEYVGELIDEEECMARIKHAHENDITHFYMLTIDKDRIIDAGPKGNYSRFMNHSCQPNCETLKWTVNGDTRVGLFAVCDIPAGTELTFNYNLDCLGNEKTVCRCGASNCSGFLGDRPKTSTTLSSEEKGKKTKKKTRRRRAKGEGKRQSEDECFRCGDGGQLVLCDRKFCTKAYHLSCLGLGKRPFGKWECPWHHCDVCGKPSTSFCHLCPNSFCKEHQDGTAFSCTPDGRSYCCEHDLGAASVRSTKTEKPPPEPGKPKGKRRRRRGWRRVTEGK
The class given is biochemical.

Another assay concerns HeLa. The experiment in a line: viability loss in HeLa cells – cell-based, 24 h, cherry-picked samples, cytotoxicity control, dose response (AID 504726).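 Further: potency for cytotoxicity as loss of luminescence signal.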 It counts as functional. To be noted: Homo sapiens.
The next assay deals with Albumin (Bos taurus, UniProt P02769). The experiment in a line: Counterscreen for inhibitors of T-cell receptor (TCR)-CD3 interaction: Fluorescence-based biochemical high throughput dose response assay to identify inhibitors of T-cell receptor (TCR)-CD3 interaction using a TAMRA-labeled BSA probe. The class given is functional. A general note: The purpose of a counterscreen is to sort out artefacts and off-target activity.
Chain of Albumin (P02769 whole entry): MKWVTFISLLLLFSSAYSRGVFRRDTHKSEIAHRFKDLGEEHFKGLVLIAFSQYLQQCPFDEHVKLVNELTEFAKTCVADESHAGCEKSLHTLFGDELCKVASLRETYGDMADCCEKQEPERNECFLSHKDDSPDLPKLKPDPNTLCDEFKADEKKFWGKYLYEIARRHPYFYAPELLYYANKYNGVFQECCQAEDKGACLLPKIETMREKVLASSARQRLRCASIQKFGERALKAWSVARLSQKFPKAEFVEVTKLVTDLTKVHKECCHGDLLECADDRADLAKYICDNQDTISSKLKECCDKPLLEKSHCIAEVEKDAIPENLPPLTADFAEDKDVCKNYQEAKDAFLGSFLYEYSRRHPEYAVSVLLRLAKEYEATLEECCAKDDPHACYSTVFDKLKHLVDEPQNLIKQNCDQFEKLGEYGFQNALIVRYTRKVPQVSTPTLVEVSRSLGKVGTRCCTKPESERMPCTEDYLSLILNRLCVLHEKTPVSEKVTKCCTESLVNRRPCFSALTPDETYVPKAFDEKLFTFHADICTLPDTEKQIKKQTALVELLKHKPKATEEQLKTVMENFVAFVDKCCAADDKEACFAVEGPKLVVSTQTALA

Another assay concerns the target Troponin, cardiac muscle (Homo sapiens, UniProt P19429+P45379+P63316). The experiment in a line: compounds desensitizing RTF to calcium – biochemical, fluorescence, cardiac regulated thin filaments, triplicate IC50, dose response (AID 504742). The class given is protein-complex assay.
The target of assay [4] is Death-associated protein kinase 3 (Homo sapiens, UniProt O43293). The class given is functional.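 Further: measured as one member of a kinome-wide profiling panel.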
Chain of Death-associated protein kinase 3 (O43293 whole entry): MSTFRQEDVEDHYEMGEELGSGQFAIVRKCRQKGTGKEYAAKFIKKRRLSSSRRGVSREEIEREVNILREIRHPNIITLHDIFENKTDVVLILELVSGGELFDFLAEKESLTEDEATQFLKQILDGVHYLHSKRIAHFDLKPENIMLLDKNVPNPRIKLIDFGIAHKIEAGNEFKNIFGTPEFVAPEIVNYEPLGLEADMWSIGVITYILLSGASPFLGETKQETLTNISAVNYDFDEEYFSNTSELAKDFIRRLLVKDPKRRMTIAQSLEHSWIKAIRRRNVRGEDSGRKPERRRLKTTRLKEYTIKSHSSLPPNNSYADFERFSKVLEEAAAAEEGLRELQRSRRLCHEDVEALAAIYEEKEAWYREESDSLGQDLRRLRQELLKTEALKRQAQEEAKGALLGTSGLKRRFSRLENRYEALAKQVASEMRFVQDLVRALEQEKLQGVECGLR
Assay [5] addresses Cyclin-dependent kinase 2 (Homo sapiens, UniProt P24941). The class given is functional.
Assay [6] concerns the target Tyrosine-protein kinase Fer (Homo sapiens, UniProt P16591). The class given is functional.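 Further: FER tested as one member of a kinome panel.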
For assay [7], the target named is Serine/threonine-protein kinase Nek4 (Homo sapiens, UniProt P51957). It counts as functional.
In the next assay the target is Activin receptor type-1 (Homo sapiens, UniProt Q04771). Description: Navigating the Kinome. Panel member name: ACVR1. The class given is functional.
Assay [8] concerns the target 3-phosphoinositide-dependent protein kinase 1 (Homo sapiens, UniProt O15530). It counts as functional.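 Further: value comes from the Navigating the Kinome panel, PDPK1 member.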
The target in assay [9] is Serine/threonine-protein kinase D2 (Homo sapiens, UniProt Q9BZL6). It counts as functional.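 Further: measured against PRKD2 as one member of a kinome-wide kinase profiling panel.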
For assay [10], the target named is Macrophage-stimulating protein receptor (Homo sapiens, UniProt Q04912). The experiment in a line: Navigating the Kinome. Panel member name: MST1R. The class given is functional.
Chain of Macrophage-stimulating protein receptor (Q04912 25-304 limits assumed): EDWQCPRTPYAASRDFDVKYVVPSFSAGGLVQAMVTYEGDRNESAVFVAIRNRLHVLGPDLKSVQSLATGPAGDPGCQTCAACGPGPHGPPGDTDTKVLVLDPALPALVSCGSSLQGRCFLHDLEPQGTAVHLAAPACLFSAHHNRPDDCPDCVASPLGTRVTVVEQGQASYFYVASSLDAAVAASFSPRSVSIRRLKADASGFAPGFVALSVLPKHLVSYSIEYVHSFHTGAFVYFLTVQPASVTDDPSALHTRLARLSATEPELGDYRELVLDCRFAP
Chain of Macrophage-stimulating protein receptor (Q04912 310-1400 limits assumed): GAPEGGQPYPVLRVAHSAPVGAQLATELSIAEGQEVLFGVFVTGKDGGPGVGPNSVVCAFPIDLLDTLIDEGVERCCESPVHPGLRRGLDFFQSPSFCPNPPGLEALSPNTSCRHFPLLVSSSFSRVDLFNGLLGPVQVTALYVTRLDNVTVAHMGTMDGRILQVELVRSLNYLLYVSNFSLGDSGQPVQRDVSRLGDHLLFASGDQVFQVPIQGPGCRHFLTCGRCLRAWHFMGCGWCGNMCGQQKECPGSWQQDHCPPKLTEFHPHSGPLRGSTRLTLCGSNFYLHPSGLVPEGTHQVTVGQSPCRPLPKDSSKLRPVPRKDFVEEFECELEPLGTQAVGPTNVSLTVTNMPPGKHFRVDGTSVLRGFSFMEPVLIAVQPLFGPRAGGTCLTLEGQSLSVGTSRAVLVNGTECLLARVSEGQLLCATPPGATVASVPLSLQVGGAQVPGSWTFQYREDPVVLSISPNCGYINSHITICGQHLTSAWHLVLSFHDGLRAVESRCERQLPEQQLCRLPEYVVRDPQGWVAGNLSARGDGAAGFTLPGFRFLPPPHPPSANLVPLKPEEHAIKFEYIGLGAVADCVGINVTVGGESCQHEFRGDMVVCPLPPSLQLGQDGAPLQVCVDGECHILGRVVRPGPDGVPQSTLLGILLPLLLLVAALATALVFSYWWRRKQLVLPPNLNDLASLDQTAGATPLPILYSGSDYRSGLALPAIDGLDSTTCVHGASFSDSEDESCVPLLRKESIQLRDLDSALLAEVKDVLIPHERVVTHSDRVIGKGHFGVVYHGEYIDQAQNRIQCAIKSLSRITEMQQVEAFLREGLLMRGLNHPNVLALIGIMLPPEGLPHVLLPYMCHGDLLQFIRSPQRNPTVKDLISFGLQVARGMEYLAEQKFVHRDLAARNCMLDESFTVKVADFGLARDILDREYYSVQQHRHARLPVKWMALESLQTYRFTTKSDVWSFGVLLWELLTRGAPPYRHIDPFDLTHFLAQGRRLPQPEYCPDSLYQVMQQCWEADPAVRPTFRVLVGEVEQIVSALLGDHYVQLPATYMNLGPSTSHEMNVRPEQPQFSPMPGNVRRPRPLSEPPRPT
For assay [11], the target named is Fibroblast growth factor receptor 3 (Homo sapiens, UniProt P22607). The class given is functional.
Chain of Fibroblast growth factor receptor 3 (P22607 whole entry): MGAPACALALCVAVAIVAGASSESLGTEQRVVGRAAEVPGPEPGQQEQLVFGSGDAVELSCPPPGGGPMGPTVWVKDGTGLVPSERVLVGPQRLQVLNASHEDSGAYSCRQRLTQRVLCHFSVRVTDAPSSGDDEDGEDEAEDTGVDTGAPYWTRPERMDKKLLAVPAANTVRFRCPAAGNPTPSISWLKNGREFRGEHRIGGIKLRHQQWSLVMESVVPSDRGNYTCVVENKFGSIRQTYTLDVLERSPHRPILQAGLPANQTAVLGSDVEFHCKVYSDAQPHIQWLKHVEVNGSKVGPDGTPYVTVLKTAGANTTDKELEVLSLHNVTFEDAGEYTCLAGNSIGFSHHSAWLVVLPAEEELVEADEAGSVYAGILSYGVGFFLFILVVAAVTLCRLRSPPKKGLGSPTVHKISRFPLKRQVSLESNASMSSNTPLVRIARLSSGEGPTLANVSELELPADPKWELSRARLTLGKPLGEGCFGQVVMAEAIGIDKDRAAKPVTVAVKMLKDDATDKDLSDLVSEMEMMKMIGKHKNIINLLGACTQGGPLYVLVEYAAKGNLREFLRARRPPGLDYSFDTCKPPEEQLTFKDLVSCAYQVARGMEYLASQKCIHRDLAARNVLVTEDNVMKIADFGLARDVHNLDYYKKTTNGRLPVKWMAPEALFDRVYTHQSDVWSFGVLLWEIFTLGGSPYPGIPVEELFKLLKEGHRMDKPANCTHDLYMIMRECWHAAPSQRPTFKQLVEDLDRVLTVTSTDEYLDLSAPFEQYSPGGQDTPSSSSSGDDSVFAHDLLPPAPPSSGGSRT
The target in assay [12] is Tyrosine-protein kinase receptor TYRO3 (Homo sapiens, UniProt Q06418). It counts as functional.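 Further: TYRO3 value obtained as one member of a kinome-wide profiling panel.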
Chain of Tyrosine-protein kinase receptor TYRO3 (Q06418 whole entry): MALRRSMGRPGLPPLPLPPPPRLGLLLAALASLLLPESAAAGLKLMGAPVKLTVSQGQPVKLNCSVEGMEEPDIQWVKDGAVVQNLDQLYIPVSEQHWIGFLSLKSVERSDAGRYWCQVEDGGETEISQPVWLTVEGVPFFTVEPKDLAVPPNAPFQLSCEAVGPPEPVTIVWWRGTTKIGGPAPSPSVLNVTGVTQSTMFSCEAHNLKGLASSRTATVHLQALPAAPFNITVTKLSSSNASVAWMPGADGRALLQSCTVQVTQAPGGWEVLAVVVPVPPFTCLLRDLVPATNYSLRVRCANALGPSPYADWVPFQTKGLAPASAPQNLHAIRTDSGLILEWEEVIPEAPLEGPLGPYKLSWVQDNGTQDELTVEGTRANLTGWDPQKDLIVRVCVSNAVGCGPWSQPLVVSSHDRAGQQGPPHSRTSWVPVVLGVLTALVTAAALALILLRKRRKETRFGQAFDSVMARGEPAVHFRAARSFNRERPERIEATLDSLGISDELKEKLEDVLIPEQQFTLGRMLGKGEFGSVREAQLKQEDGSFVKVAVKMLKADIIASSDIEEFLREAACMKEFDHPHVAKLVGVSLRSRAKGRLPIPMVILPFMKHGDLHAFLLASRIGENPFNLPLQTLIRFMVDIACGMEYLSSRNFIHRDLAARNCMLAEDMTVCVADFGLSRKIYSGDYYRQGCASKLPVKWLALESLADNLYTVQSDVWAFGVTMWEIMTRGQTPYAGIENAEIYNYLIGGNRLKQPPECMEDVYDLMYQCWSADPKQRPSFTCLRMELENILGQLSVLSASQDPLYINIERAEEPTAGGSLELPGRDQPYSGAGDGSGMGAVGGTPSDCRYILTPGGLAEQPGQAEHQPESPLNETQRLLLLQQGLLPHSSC

Regarding `O=C(NN1C(=O)CSC1=S)C(=O)NN1C(=O)CSC1=S`, the IC50 on Leucine aminopeptidase is 20.5 µM (active). In addition, the EC50 in assay [1] is 9.21 µM (active).
Take `COC(=O)C1CN(C#N)N(c2ccc(Cl)cc2)C12c1ccccc1-c1ccccc12` (configuration not stated): the EC50 in [2] is > 120 µM (not active).
As to `Cc1ccc2[nH]c(/C(C#N)=C/c3ccc(O)c(O)c3)nc2c1`, the AC50 in [3] is 4.37 µM (active).
`O=C1NC(=S)S/C1=C\C=C\c1ccc([N+](=O)[O-])o1`: the AC50 with HeLa was 12.5 µM (active). Also, the IC50 on Albumin is > 94.1 µM (inactive); on Troponin, cardiac muscle, 40.2 µM (inactive).
Take `Nc1noc2cccc(-c3cccc(O)c3)c12`: the Ki in [4] was > 25.1 µM (inactive); in assay [5] it was > 7.94 µM (inactive); in assay [6], > 1.58 µM (inactive); in assay [7], > 6.31 µM (inactive); on Activin receptor type-1, 0.631 µM (active); in [8], > 3.98 µM (inactive). Moreover, the Ki is 7.94 µM (active) in assay [9], 20 µM (active) in assay [10], > 2 µM (inactive) in assay [11] and > 7.94 µM (inactive) in [12].
